Experimental findings from publication PMC10053230, “Constituents of the Stem Bark of Symphonia globulifera Linn. f. with Antileishmanial and Antibacterial Activities” (Molecules, 2023) are described below.

The IC50 is the concentration at which inhibition is half-maximal. What is called CC50 is the concentration giving 50% cytotoxicity. The MIC is the lowest concentration that inhibits growth of the organism.

In brackets after ≈: the same amount, converted by molar mass. Like-named read-outs stand apart in the source and are kept apart here.

Data set [1] relates to Raw 264.7 macrophage cells. Nature of the data set: Cytotoxicity, Alamar blue assay. Format: cell-based. The following applies: for Selectivity Index SI (=CC50/IC50): CC50 Raw 264.7 macrophages / IC50 L. donovani. The procedure: (§1) (2010) with little modifications. […] Test plates were incubated for 28 h at 28 °C, followed by the addition of 1 mg/mL resazurin. […] The cytotoxicity profile of the crude extract and compounds was assessed using the Alamar blue assay (Mosman, 1983) against Raw 264.7 macrophage cells.
For orientation: Alamar Blue is a resazurin reagent that responds to reducing activity.

Data set [2] relates to L. donovani NR-48822 promastigotes. Nature of the data set: In vitro antileishmanial assay, resazurin colorimetric method. Format: cell-based, Leishmania donovani. Particulars: 28 h at 28 °C, triplicate; for IC50: Leishmania donovani, read-out: Antileishmanial Activity IC50 ± SD. The procedure:
The antileishmanial activity on cultured L. donovani 1S (MHOM/SD/62/1S) promastigotes was evaluated using the resazurin colorimetric method as described by Siqueira-Neto et al. (2010) with little modifications. They were all assessed in triplicate at concentrations ranging from 100 to 0.16 µg/mL for the extract and 50–0.08 µg/mL for the compounds. Test plates were incubated for 28 h at 28 °C, followed by the addition of 1 mg/mL resazurin. The negative and positive controls were 0.1% DMSO and amphotericin B (10–0.016 µg/mL), respectively. The cytotoxicity profile of the crude extract and compounds was assessed using the Alamar blue assay (Mosman, 1983) against Raw 264.7 macrophage cells.

Data set [3] can be described thus: Cytotoxicity, Alamar blue assay. Format: cell-based. Particulars: mouse; Raw 264.7 macrophage cells; read-out: Macrophages CC50 ± SD. The procedure:
as §1

In another data set the test system is S. enterica NR13555. Nature of the data set: Antibacterial broth microdilution (MIC). Format: cell-based. Particulars: Salmonella enterica, read-out: Antibacterial Activity MIC, Se. The procedure:
(§2) The minimum inhibitory concentration (MIC) of the samples was evaluated following the broth microdilution method as described by Eloff, with light modifications. The extracts, compounds, and reference drug were dissolved in DMSO-MHB. […] Gentamicin was used as the positive control. Briefly, one hundred microliters of Mueller Hinton Broth was added to all wells of the 96-well plate, and 100 µL of the compounds/extracts was introduced into the wells in the first row (A) and mixed thoroughly. The sample mixture (100 µL) was removed from the well from row A to perform a twofold serial dilution down the rows (B–H). The last 100 µL was discarded. Then, 100 µL of the inoculum was introduced into the corresponding wells. The final volume in each well was 200 µL. Each extract concentration was assayed in triplicate and each test was performed twice. After an incubation period of 18 h at 37 °C, 20 µL of Alamar Blue was added to each well. The plates were then re-incubated for 30 min at 37 °C. A blue color in the well was scored as ‘‘no bacterial growth”, while a pink color was scored as a ‘‘growth occurrence”. MIC values were read at those concentrations where a pronounced change in color formation was noticed (from blue to pink).
Background: In broth dilution the organism is exposed to a series of concentrations in liquid medium.

Data set [4] deals with Pseudomonas aeruginosa HM801. The experiment in a line: Antibacterial broth microdilution (MIC). Format: cell-based. The procedure: as §2
For a further data set, the system named is S. aureus ATCC25923. Nature of the data set: Antibacterial broth microdilution (MIC). Particulars: Staphylococcus aureus, read-out: Antibacterial Activity MIC, Sau. The format is cell-based. As for the experimental part:
as §2

The subject of data set [5] is Klebsiella pneumoniae clinical isolate. The experiment in a line: Antibacterial broth microdilution (MIC). The format is cell-based. Particulars: read-out: Antibacterial Activity MIC, Kpc. The procedure:
as §2

The test system of the next data set is Salmonella typhi CPC. The experiment in a line: Antibacterial broth microdilution (MIC). Format: cell-based. The following applies: Salmonella enterica, read-out: Antibacterial Activity MIC, St. The procedure: as §2
The test system of data set [6] is Staphylococcus aureus ATCC43300. Nature of the data set: Antibacterial broth microdilution (MIC). The following applies: read-out: Antibacterial Activity MIC, Sa. The format is cell-based. The procedure: as §2
For the next data set, the system named is K. pneumoniae NR41388. Nature of the data set: Antibacterial broth microdilution (MIC). Format: cell-based, Klebsiella pneumoniae. The procedure: as §2
Setting [7] is: Pseudomonas aeruginosa HM801, read-out: Antibacterial Activity MIC, Pa.
The mark [8] stands for this setting: Klebsiella pneumoniae clinical isolate.

In the case of “1,5-dihydroxy-3-methoxyxanthone [Compound 10]”, the “Macrophages CC50 ± SD” value in [1] (Raw 264.7 macrophage cells) was over 20 µg/mL. In addition, the “Antileishmanial Activity IC50 ± SD” value in [2] is 47.04 ± 1.67 µg/mL.

As for `C[C@@H]1[C@H](O)[C@@H](C)/C=C/C=C/C=C/C=C/C=C/C=C/C=C/[C@H](O[C@@H]2O[C@H](C)[C@@H](O)[C@H](N)[C@@H]2O)C[C@@H]2O[C@](O)(C[C@@H](O)C[C@@H](O)[C@H](O)CC[C@@H](O)C[C@@H](O)CC(=O)O[C@H]1C)C[C@H](O)[C@H]2C(=O)O` [Amphotericin B, reference compound], the IC50 in data set [2] was found to be 0.048 µg/mL (≈ 0.0519 µM).

Regarding `C=C(C)CCC1CC2(CC=C(C)C)C(=O)C(=C(O)c3ccc(O)c(O)c3)C(=O)C(CC=C(C)C)(C2=O)C1(C)CCC=C(C)C` (stereo not shown) [Compound 1, guttiferone U], the “Selectivity Index SI (=CC50/IC50)” value in [1] worked out at 2.17. For the same compound, in data set [3], the half-maximal cytotoxic concentration (CC50) came out at 28.1 ± 5.72 µg/mL (≈ 46.5 µM). The IC50 in [2] was 12.9 ± 1.11 µg/mL (≈ 21.4 µM). Moreover, the MIC in the data set with S. enterica NR13555 turned out to be 62.5 µg/mL (≈ 104 µM); in data set [4] (setting [7]), 3.9 µg/mL (≈ 6.47 µM); with S. aureus ATCC25923, 3.9 µg/mL (≈ 6.47 µM); in [5] (setting [8]) it was 3.9 µg/mL (≈ 6.47 µM); with Salmonella typhi CPC, 3.9 µg/mL (≈ 6.47 µM); in [6] it was 125 µg/mL (≈ 207 µM). In addition, the “Antibacterial Activity MIC, Kp” value in the data set with K. pneumoniae NR41388 amounted to 62.5 µg/mL.

`CC(C)=CCCC(C)=CCCC(C)=CCCC1(C)CCC2=C(O1)C(C)(O)C(O)C2=O` (stereo not shown) [Compound 4, 12-farnesyl-6,7-dihydroxy-7-methyl-3,4,6,7-tetrahydrocyclopenta[b]pyran-5(2H)-one]: the CC50 in data set [3] is over 20 µg/mL. In addition, the half-inhibitory concentration (IC50) in data set [2] was 14 ± 1.14 µg/mL (≈ 33.7 µM). Besides, the MIC in the data set with S. enterica NR13555 turned out to be 125 µg/mL (≈ 300 µM); in data set [4] (Pseudomonas aeruginosa, HM801, read-out: Antibacterial Activity MIC, Pa) it was 31.2 µg/mL (≈ 74.9 µM); in the data set on S. aureus ATCC25923, 62.5 µg/mL (≈ 150 µM); in [5] (Klebsiella pneumoniae), 31.2 µg/mL (≈ 74.9 µM); in the data set with Salmonella typhi CPC, 31.2 µg/mL (≈ 74.9 µM); in [6], 500 µg/mL (≈ 1200 µM). For the same compound, the “Antibacterial Activity MIC, Kp” value in the data set on K. pneumoniae NR41388 worked out at 62.5 µg/mL.

For `COc1cc2c(=O)c3c(O)c4c(c(CC=C(C)C)c3oc2c(O)c1OC)OC(C)(C)C=C4` [Compound 6, gaboxanthone], the “Selectivity Index SI (=CC50/IC50)” value in [1] is over 1.25. Also, in [3], the CC50 is over 20 µg/mL. Further, in data set [2], the IC50 amounted to 16 ± 1.2 µg/mL (≈ 36.4 µM).

With `COc1cc2c(=O)c3c(O)c4c(c(CC=C(C)C)c3oc2c(O)c1O)OC(C)(C)C=C4` [Compound 7, xanthone V2], the “Selectivity Index SI (=CC50/IC50)” value in data set [1] is recorded as over 1.54. Further, in [3], the CC50 is over 20 µg/mL. For the same compound, in data set [2], the concentration for half-maximal inhibition (IC50) was found to be 12.9 ± 1.11 µg/mL (≈ 30.4 µM).

As for `CC1(C)C=Cc2c(cc3oc4c(O)c5c(cc4c(=O)c3c2O)C=CC(C)(C)O5)O1` [Compound 8, pyranojacareubin], the “Selectivity Index SI (=CC50/IC50)” value in data set [1] was over 1.54. Also, in [3], the CC50 is over 20 µg/mL. Moreover, the IC50 in data set [2] is 12.9 ± 1.11 µg/mL (≈ 32.9 µM).

As to `CNC(C)C1CCC(N)C(OC2C(N)CC(N)C(OC3OCC(C)(O)C(NC)C3O)C2O)O1` (stereo not shown) [Gentamycin, reference compound], the MIC with S. enterica NR13555 is 0.07 µg/mL (≈ 0.147 µM); in data set [4] (setting [7]) it was 0.048 µg/mL (≈ 0.101 µM); in the data set with S. aureus ATCC25923, 0.03 µg/mL (≈ 0.0628 µM); in [5] (setting [8]) it was 0.048 µg/mL (≈ 0.101 µM); in the data set with Salmonella typhi CPC, 0.048 µg/mL (≈ 0.101 µM); in data set [6] it was 0.07 µg/mL (≈ 0.147 µM).
